Data from US20240425497A1, “Cbl-b Inhibitors and Methods of Use Thereof” (ARCUS BIOSCIENCES, INC., priority 2023, published 2024).

Experiments:
[1] = biological target: Cbl-b (Homo sapiens (Human), UniProt Q13191); test: Cbl-b probe displacement HTRF binding assay; conditions: 0.4 nM biotinylated Cbl-b, 150 nM BODIPY probe
Description: The affinity with which compounds of the present disclosure bind to Cbl-b was assessed using probe displacement homologous time resolved fluorescence (HTRF) assays. The assays used a BODIPY™ conjugated probe (Example 54 from WO 2020264398) and biotinylated Cbl-b. The assays were performed in assay buffer consisting of 20 mM Hepes, 150 mM NaCl, 0.01% Triton X-100, 0.5 mM TCEP, 0.01% BSA. On the day of the assay, a 20 point, 1:2 master serial dilution of each compound was prepared in DMSO to span a final concentration range of 10 μM to 0 nM. Two hundred nanoliters of diluted compound was added to each well of a 384-well plate. Fifteen microliters of biotinylated-Cbl-b resuspended in assay buffer were added to each well and the plate incubated for 60 minutes at room temperature prior to addition of 5 μL of BODIPY™ probe in assay buffer. Final assay conditions included 0.4 nM of Cbl-b and 150 nM of BODIPY™ probe. After a further 15 minutes of incubation at room temperature, 5 μl of Streptavidin-Terbium cryptate reagent at 5-fold final concentration was added to each well of the 384-well plate. Binding of a probe to Cbl-b results in an increase of HTRF signal. HTRF signal was measured by Envision plate reader, while competition of a compound of the present disclosure with probe results in a decrease of signal. Percentage maximum activity in each test well was calculated based on DMSO (maximum activity, 0% displacement) and no protein control wells (baseline activity, 100% displacement). Binding affinity was determined from a dose response curve fitted using a standard four parameter fit equation. See Table 3 for data for compounds (Cbl-b Binding (IC50)).

[2] = system: Jurkat cells; test: IL-2 secretion assay in CD3/CD28-activated Jurkat cells (AlphaLISA); assay type: cell-based, human; conditions: Homo sapiens, CD3/CD28 activation, 24 h
Description: Certain compounds were also evaluated in an IL-2 secretion assay. On the day of the assay, a 16 point, 1:2 master serial dilution of each compound was prepared in Opti-MEM to span a final concentration range of […]. Assays were set up in CORNING® tissue culture-treated 384-well microplates containing 60 nL of each dilution. Jurkat cells grown in RPMI-1640 supplemented with 10% FBS, 1% Glutamax, and 1% Pen/Strep were collected, resuspended in Opti-MEM. 50,000 cells/well and added to the compound plates. After a short spin (1200 rpm for 1 min), the plates were incubated at 37° C. for 1 hour. The cells were activated by adding 15 μL of IMMUNOCULT™ Human CD3/CD28 T Cell Activator (STEMCELL Technologies) diluted in Opti-MEM. After 24 h of incubation at 37° C., aliquots of culture supernatants were transferred to OptiPlate-384 (PerkinElmer) microplates. The level of JIL-2 secretion in the supernatants was then determined using the IL-2 (human) AiphaLISA Detection Kit (PerkinElmer) according to the manufacturer's recommendations. The AiphaLISA signal was measured using an EnVision plate reader (PerkinElmer). EC50 values were determined by fitting the data to a standard 4-parameter logistic equation. See Table 3 for data for select compounds (IL-2 Secretion (EC50)).

Chain of Cbl-b (Q13191 whole entry, species assumed): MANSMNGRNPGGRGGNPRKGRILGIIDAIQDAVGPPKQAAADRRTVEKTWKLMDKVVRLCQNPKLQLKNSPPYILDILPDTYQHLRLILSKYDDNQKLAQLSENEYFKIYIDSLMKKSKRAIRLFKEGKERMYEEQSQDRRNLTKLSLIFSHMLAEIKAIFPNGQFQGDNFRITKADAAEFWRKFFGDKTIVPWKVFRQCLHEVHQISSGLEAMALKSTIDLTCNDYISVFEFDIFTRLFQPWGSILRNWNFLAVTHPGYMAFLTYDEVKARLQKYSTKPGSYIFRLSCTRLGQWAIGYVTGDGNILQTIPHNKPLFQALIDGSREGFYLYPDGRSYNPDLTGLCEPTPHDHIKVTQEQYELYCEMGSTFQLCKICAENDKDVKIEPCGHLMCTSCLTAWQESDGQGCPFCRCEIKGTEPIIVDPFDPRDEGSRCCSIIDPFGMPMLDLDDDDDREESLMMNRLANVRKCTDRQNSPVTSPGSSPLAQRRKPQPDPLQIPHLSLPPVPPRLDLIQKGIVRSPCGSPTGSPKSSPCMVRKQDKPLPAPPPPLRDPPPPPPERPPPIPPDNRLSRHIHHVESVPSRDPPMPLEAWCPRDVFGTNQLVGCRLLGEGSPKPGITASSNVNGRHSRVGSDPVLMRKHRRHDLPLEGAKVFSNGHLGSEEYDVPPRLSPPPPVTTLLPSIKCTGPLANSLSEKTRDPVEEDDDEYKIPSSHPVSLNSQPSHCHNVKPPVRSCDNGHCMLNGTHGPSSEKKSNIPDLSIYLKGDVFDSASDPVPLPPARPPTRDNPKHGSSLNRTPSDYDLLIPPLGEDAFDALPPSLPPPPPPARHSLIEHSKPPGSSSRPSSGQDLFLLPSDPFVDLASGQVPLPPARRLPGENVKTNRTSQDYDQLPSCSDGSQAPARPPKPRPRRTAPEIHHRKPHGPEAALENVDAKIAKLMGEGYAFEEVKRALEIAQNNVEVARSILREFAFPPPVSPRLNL

IC50 [1] [nM]	EC50 [2] [nM]	Structure (SMILES)
< 100	100 to 1000	C[C@H]1CCCN(Cc2cc3c(C#N)cn(-c4cc(-c5c(C(=O)N6CC(F)C6)cnn5C)cc(C5CC5)n4)c(=O)c3[nH]2)C1 [Example 45, 2-{[(S)-3-methyl-1-piperidyl]methyl}-6-(6-cyclopropyl-4-{4-[(3-fluoro-1-azetidinyl)carbonyl]-1-methyl-5-pyrazolyl}-2-pyridyl)-7-oxo-1,6-dihydro-1,6-diaza-4-indenecarbonitrile]
< 100	100 to 1000	CC(c1cc2ncn(-c3cc(-c4ccc(F)cc4C(=O)N4CC(F)C4)cc(C4CC4)n3)c(=O)c2[nH]1)N1CCO[C@H](C)C1 (stereo partly drawn) [Example 47, 2-{1-[(R)-2-methyl-4-morpholinyl]ethyl}-6-(6-cyclopropyl-4-{4-fluoro-2-[(3-fluoro-1-azetidinyl)carbonyl]phenyl}-2-pyridyl)-1,6-dihydro-1,4,6-triaza-7-indenone]
< 100	< 100	C[C@H]1CCCN(Cc2cc3c(C4CC4)cn(-c4cc(-c5ccc(F)cc5C(=O)N5CC(F)C5)nc(C5CC5)n4)c(=O)c3[nH]2)C1 [Example 30, 4-cyclopropyl-6-[2-cyclopropyl-6-[4-fluoro-2-(3-fluoroazetidine-1-carbonyl)phenyl]pyrimidin-4-yl]-2-[[(3S)-3-methylpiperidin-1-yl]methyl]—1H-pyrrolo[2,3-c]pyridin-7-one]
100 to 1000	100 to 1000	O=C(c1cc(F)ccc1-c1cc(C2CC2)nc(-n2cnc3cc(C4CC4)[nH]c3c2=O)c1)N1CC(F)C1 [Example 33, 6-cyclopropyl-3-[6-cyclopropyl-4-[4-fluoro-2-(3-fluoroazetidine-1-carbonyl)phenyl]pyridin-2-yl]-5H-pyrrolo[3,2-d]pyrimidin-4-one]
< 100	100 to 1000	N#Cc1cn(-c2cc(-c3ccc(F)cc3C(=O)N3CC(F)C3)cc(C3CC3)n2)c(=O)c2[nH]c(CO)cc12 [Example 54, 6-(6-cyclopropyl-4-{4-fluoro-2-[(3-fluoro-1-azetidinyl)carbonyl]phenyl}-2-pyridyl)-2-(hydroxymethyl)-7-oxo-1,6-dihydro-1,6-diaza-4-indenecarbonitrile]
100 to 1000	1000 to 5000	CC(O)c1cc2ncn(-c3cc(-c4ccc(F)cc4C(=O)N4CC(F)C4)cc(C4CC4)n3)c(=O)c2[nH]1 (centres unmarked) [Example 27, 6-(6-cyclopropyl-4-{4-fluoro-2-[(3-fluoro-1-azetidinyl)carbonyl]phenyl}-2-pyridyl)-2-(1-hydroxyethyl)-1,6-dihydro-1,4,6-triaza-7-indenone]
< 100	1000 to 5000	O=C(c1cc(F)ccc1-c1cc(C2CC2)nc(-n2cnc3cc(C4CCNC4)[nH]c3c2=O)c1)N1CC(F)C1 (centres unmarked) [Example 32, 3-[6-cyclopropyl-4-[4-fluoro-2-(3-fluoroazetidine-1-carbonyl)phenyl]pyridin-2-yl]-6-pyrrolidin-3-yl-5H-pyrrolo[3,2-d]pyrimidin-4-one]
< 100	< 100	C[C@H]1CCCN(Cc2cc3c(C4CC4)cn(-c4cc(-c5ccc(F)cc5C(=O)N5CC(F)(F)C5)cc(C5CC5)n4)c(=O)c3[nH]2)C1 [Example 14, 2-{[(S)-3-methyl-1-piperidyl]methyl}-4-cyclopropyl-6-(6-cyclopropyl-4-{2-[(3,3-difluoro-1-azetidinyl)carbonyl]-4-fluorophenyl}-2-pyridyl)-1,6-dihydro-1,6-diaza-7-indenone]
< 100	100 to 1000	C[C@H]1CCCN(Cc2ccc3c(c2)C(=O)N(c2cc(-c4ccc(F)cc4C(=O)N4CC(F)C4)cc(C4CC4)n2)C3)C1 [Example 28, 6-{[(S)-3-methyl-1-piperidyl]methyl}-2-(6-cyclopropyl-4-{4-fluoro-2-[(3-fluoro-1-azetidinyl)carbonyl]phenyl}-2-pyridyl)-1-isoindolinone]
< 100	100 to 1000	N#Cc1c(CO)[nH]c2c(=O)n(-c3cc(-c4ccc(F)cc4C(=O)C4CC(F)C4)cc(C4CC4)n3)cc(C(F)(F)F)c12 (centres unmarked) [Example 53, 6-[6-cyclopropyl-4-[4-fluoro-2-(3-fluorocyclobutanecarbonyl)phenyl]pyridin-2-yl]-2-(hydroxymethyl)-7-oxo-4-(trifluoromethyl)-1H-pyrrolo[2,3-c]pyridine-3-carbonitrile]
100 to 1000	> 5000	Cc1cn(-c2cc(-c3ccc(F)cc3C(=O)N3CC(F)C3)cc(C3CC3)n2)c(=O)c2[nH]c([C@@H]3CCCN3)nc12 [Example 50, 5-[6-cyclopropyl-4-[4-fluoro-2-(3-fluoroazetidine-1-carbonyl)phenyl]pyridin-2-yl]-7-methyl-2-[(2S)-pyrrolidin-2-yl]-3H-imidazo[4,5-c]pyridin-4-one]
< 100	< 100	COCCNCc1cc2ncn(-c3cc(-c4ccc(F)cc4C(=O)N4CC(F)C4)cc(C4CC4)n3)c(=O)c2[nH]1 [Example 35, 3-[6-cyclopropyl-4-[4-fluoro-2-(3-fluoroazetidine-1-carbonyl)phenyl]pyridin-2-yl]-6-[(2-methoxyethylamino)methyl]-5H-pyrrolo[3,2-d]pyrimidin-4-one]
< 100	100 to 1000	C[C@H]1CCCN(Cc2cc3c(C#N)cn(-c4cc(-c5ccc(F)c(F)c5C(=O)N(C)C)cc(C5CC5)n4)c(=O)c3[nH]2)C1 [Example 19, N,N-dimethyl6-[2-(2-{[(S)-3-methyl-1-piperidyl]methyl}-4-cyano-7-oxo-1,6-dihydro-1,6-diaza-6-indenyl)-6-cyclopropyl-4-pyridyl]-2,3-difluorobenzamide]
< 100	< 100	C[C@H]1CCCN(Cc2cc3ncn(-c4cc(-c5ccc(F)cc5C(=O)N5CC(F)C5)cc(C5CC5)n4)c(=O)c3[nH]2)C1 [Example 25, 2-{[(S)-3-methyl-1-piperidyl]methyl}-6-(6-cyclopropyl-4-{4-fluoro-2-[(3-fluoro-1-azetidinyl)carbonyl]phenyl}-2-pyridyl)-1,6-dihydro-1,4,6-triaza-7-indenone]
< 100	> 5000	Cc1cn(-c2cc(-c3ccc(F)cc3C(=O)N3CC(F)C3)cc(C3CC3)n2)c(=O)c2[nH]c([C@H]3CCCN3)nc12 [Example 49, 5-[6-cyclopropyl-4-[4-fluoro-2-(3-fluoroazetidine-1-carbonyl)phenyl]pyridin-2-yl]-7-methyl-2-[(2R)-pyrrolidin-2-yl]-3H-imidazo[4,5-c]pyridin-4-one]
< 100	< 100	CC1(NCc2cc3ncn(-c4cc(-c5ccc(F)cc5C(=O)N5CC(F)C5)cc(C5CC5)n4)c(=O)c3[nH]2)CCC1 [Example 36, 3-[6-cyclopropyl-4-[4-fluoro-2-(3-fluoroazetidine-1-carbonyl)phenyl]pyridin-2-yl]-6-[[(1-methylcyclobutyl)amino]methyl]-5H-pyrrolo[3,2-d]pyrimidin-4-one]
< 100	< 100	C[C@@H]1CN(Cc2cc3ncn(-c4cc(-c5ccc(F)cc5C(=O)N5CC(F)C5)cc(C5CC5)n4)c(=O)c3[nH]2)CCO1 [Example 26, 3-[6-cyclopropyl-4-[4-fluoro-2-(3-fluoroazetidine-1-carbonyl)phenyl]pyridin-2-yl]-6-[[(2R)-2-methylmorpholin-4-yl]methyl]-5H-pyrrolo[3,2-d]pyrimidin-4-one]
< 100	< 100	C[C@H]1CCCN(Cc2cc3c(C4CC4)cn(-c4cc(-c5ccc(F)cc5C(=O)N(C)C)cc(C5CC5)n4)c(=O)c3[nH]2)C1 [Example 1, 2-[2-cyclopropyl-6-[4-cyclopropyl-2-[[(3S)-3-methylpiperidin-1-yl]methyl]-7-oxo-1H-pyrrolo[2,3-c]pyridin-6-yl]pyridin-4-yl]-5-fluoro-N,N-dimethylbenzamide]
< 100	< 100	C[C@H]1CCCN(Cc2cc3c(C4CC4)cn(-c4cc(-c5ccc(F)cc5C(=O)N5CC(F)C5)cc(C5CC5)n4)c(=O)c3[nH]2)C1 [Example 10, 2-{[(S)-3-methyl-1-piperidyl]methyl}-4-cyclopropyl-6-(6-cyclopropyl-4-{4-fluoro-2-[(3-fluoro-1-azetidinyl)carbonyl]phenyl}-2-pyridyl)-1,6-dihydro-1,6-diaza-7-indenone]
